One compound from patent publication US20080107625A1, “Inhibitors of Hepatitis C Virus” (Bristol-Myers Squibb Company, priority 2006, published 2008) can be followed below.

For this experiment, the system named is HCV replicon in HUH-7 cells. Put plainly: HCV replicon FRET assay. In kind it is cell-based, HCV strain 1b. As to conditions: Hepatitis C virus, 96 h, 4 days. From the text: An HCV replicon whole cell system was established as described by Lohmann V, Korner F, Koch J, Herian U, Theilmann L, Bartenschlager R., Science 285(5424): 110-3 (1999). This system enabled us to evaluate the effects of our HCV Protease compounds on HCV RNA replication. Briefly, using the HCV strain 1b sequence described in the Lohmann paper (Assession number: AJ238799), an HCV cDNA was synthesized by Operon Technologies, Inc. (Alameda, Calif.), and the full-length replicon was then assembled in plasmid pGem9zf(+) (Promega, Madison, Wis.) using standard molecular biology techniques. […]
The HCV replicon FRET assay was developed to monitor the inhibitory effects of compounds described in the disclosure on HCV viral replication. […] After 4 days, cells were first assessed for cytotoxicity using alamar Blue (Trek Diagnostic Systems) for a CC50 reading. The toxicity of compound (CC50) was determined by adding 1/10th volume of alamar Blue to the media incubating the cells. After 4 hours, the fluorescence signal from each well was read, with an excitation wavelength at 530 nm and an emission wavelength of 580 nm, using the Cytofluor Series 4000 (Perspective Biosystems). […]

Usually EC50 stands for the concentration at which the effect is half-maximal. `CC(C)(C)OC(=O)N[C@H]1CN(C2CC2)CCC/C=C\C2C[C@@]2(C(=O)NS(=O)(=O)C2CC2)NC(=O)[C@@H]2C[C@@H](Oc3ccccn3)CN2C1=O` (stereo partly shown) [Compound 1] displayed an EC50 of 1090 nM.
